Reference: patent US20170209448A1, “TREATMENT REGIMENS USING MULTIPLE PHARMACEUTICAL AGENTS” (INTELLIKINE LLC, priority 2011, published 2017)
Where two headings read alike, the source gives them in different places.

Experiments:
mTORC = target: T1, mTORC (Homo sapiens, UniProt P42345); assay: mTORC in vitro IC50 (Table 2); assay type: biochemical
T1 construct: purchased Invitrogen
Experimental: The compounds described herein and any other mTor inhibitors known in the art can be tested against recombinant mTOR (Invitrogen) in an assay containing 50 mM HEPES, pH 7.5, 1 mM EGTA, 10 mM MgCl2, 2.5 mM, 0.01% Tween, 10 μM ATP (2.5 μLCi of μ-32P-ATP), and 3 μg/mL BSA. Rat recombinant PHAS-1/4EBP1 (Calbiochem; 2 mg/mL) is used as a substrate. Reactions are terminated by spotting onto nitrocellulose, which is washed with 1M NaCl/1% phosphoric acid (approximately 6 times, 5-10 minutes each). Sheets are dried and the transferred radioactivity quantitated by phosphorimaging.
For instance, one can use Invitrogen's LanthaScreen™ Kinase assay to test the inhibitors of mTOR disclosed herein. This assay is a time resolved FRET platform that measures the phosphorylation of GFP labeled 4EBP1 by mTOR kinase. The kinase reaction is performed in a white 384 well microtitre plate. The total reaction volume is 20 ul per well and the reaction buffer composition is 50 mM HEPES pH7.5, 0.01% Polysorbate 20, 1 mM EGTA, 10 mM MnCl2, and 2 mM DTT. In the first step, each well receives 2 ul of test compound in 20% dimethylsulphoxide resulting in a 2% DMSO final concentration. Next, 8 ul of mTOR diluted in reaction buffer is added per well for a 60 ng/ml final concentration. To start the reaction, 10 ul of an ATP/GFP-4EBP1 mixture (diluted in reaction buffer) is added per well for a final concentration of 10 μM ATP and 0.5 μM GFP-4EBP1. The plate is sealed and incubated for 1 hour at room temperature. […] The plate is sealed, incubated for 1 hour at room temperature, and then read on a plate reader set up for LanthaScreen™ TR-FRET. Data is analyzed and IC50s are generated using GraphPad Prism 5.

PC3 = PC3 tumor cell line proliferation assay; assay type: cell-based; conditions: Homo sapiens, PC-3
Experimental: The assay is performed in a 96 well microtiter plate using Alamar Blue reduction. […] A compound disclosed herein is diluted in Tumor Cell Media and added in a 10 ul volume. […] A volume of 10 uL of Alamar Blue reagent is added to each well and plates are incubated for 3 hours at 37 C and 5% CO2.

A498 xenografts = assay: Tumor hypoxia by pimonidazole staining in A498 xenografts; assay type: in vivo, Mice
Experimental: Mice bearing A498 xenografts were treated as shown below in Table 5 for 6 weeks or cycles (each cycle consisting of 7 days). During cycle 6, mice were sacrificed 2 hours after dosing. Pimonidazole hydrochloride, which binds to proteins in hypoxia conditions, was injected intraperitoneally 60 minutes before the tumor was harvested. Tumors were collected either at 2 hr of vehicle (Groups A, C, and D), Compound A (Groups B, C, and E) or sorafenib (Group D) dosing. Tumor tissues were formalin fixed and paraffin embedded. Tissue sections were stained with anti-pimonidazole antibody and visualized with DAB (dark brown).

[1] = Table 2, read-out: PC3 proliferation

T1 sequence (P42345 1360-2549 limits assumed): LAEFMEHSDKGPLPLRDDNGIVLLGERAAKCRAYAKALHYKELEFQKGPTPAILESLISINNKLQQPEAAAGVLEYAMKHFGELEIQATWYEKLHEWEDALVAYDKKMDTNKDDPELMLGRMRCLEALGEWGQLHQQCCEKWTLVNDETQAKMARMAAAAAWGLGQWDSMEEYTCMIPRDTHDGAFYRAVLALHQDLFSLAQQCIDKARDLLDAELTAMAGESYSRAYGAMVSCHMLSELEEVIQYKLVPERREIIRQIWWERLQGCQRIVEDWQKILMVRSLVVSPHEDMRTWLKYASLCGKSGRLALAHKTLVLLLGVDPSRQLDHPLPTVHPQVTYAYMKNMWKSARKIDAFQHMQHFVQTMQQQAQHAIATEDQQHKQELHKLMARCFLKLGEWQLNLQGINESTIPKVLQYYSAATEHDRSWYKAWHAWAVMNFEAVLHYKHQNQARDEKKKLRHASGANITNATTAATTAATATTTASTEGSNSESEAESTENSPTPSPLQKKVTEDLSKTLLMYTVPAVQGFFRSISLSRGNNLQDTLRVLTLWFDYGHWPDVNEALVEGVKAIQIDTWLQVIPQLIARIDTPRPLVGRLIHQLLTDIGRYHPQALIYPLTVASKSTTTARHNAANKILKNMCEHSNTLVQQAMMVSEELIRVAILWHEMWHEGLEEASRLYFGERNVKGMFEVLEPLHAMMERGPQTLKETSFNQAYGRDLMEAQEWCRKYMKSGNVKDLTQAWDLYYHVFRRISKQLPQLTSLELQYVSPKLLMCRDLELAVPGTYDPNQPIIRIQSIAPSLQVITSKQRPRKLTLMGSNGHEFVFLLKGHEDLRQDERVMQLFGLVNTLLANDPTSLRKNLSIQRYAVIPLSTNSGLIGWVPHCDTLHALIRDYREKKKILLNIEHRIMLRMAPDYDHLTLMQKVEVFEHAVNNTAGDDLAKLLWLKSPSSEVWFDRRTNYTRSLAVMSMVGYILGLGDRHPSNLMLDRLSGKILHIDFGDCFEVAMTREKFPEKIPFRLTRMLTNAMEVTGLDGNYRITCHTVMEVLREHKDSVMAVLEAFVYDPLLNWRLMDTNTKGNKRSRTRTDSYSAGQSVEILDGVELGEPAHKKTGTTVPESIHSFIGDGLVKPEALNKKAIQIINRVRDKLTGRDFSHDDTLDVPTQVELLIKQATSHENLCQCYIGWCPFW

Compound | IC50 (mTORC) | also measured
CN1CCN(C2CC(n3nc(-c4cc5cc(O)ccc5[nH]4)c4c(N)ncnc43)C2)CC1 (stereo not drawn) [Compound 52] | < 500 nM | 
Nc1ncnc2c1c(-c1cc3cc(O)ccc3[nH]1)nn2Cc1cccnc1 [Compound 38] | < 500 nM | 
CC(=O)Nc1noc2cc(-c3nn(C(C)C)c4ncnc(N)c34)ccc12 [Compound 11] |  | IC50 (PC3; Table 1, read-out: PC3 IC50): > 10000 nM
Nc1ncnc2c1c(-c1cc3cccc(O)c3[nH]1)nn2C1CCN(C(=O)C2CC2)CC1 [Compound 41] | < 10 nM | 
Nc1ncnc2c1c(-c1cc3cc(O)ccc3[nH]1)nn2C1CCCC1 [Compound 12] | < 10 nM | 
CC(C)n1nc(-c2cc3cccc(Cl)c3[nH]2)c2c(N)ncnc21 [Compound 50] | < 50 nM | 
CC(C)n1nc(-c2cc3ccccc3[nH]2)c2c(N)ncnc21 [Compound 7] | < 100 nM | 
CC(C)N1CCC(n2nc(-c3cc4c(Cl)ccc(O)c4[nH]3)c3c(N)ncnc32)CC1 [Compound 71] | < 100 nM | 
Nc1ncnc2c1c(-c1cc3cc(O)ccc3[nH]1)nn2C1CC(N2CCOCC2)C1 (stereo not drawn) [Compound 49] | < 10 nM | 
CC(C)n1nc(-c2cc3cc(F)ccc3[nH]2)c2c(N)ncnc21 [Compound 3] | < 500 nM | 
Nc1ncnc2c1c(-c1cc3c(Cl)cccc3[nH]1)nn2C1CCOCC1 [Compound 48] | < 50 nM | 
Nc1ncnc2c1c(-c1cc3cccc(Cl)c3[nH]1)nn2C1CCOCC1 [Compound 51] | < 50 nM | 
CC(C)n1nc(-c2cc3c(Cl)cccc3[nH]2)c2c(N)ncnc21 [Compound 9] | < 50 nM | 
CC(=O)N1CCC(n2nc(-c3ccc4oc(N)nc4c3)c3c(N)ncnc32)CC1 [Compound 7] |  | IC50 (PC3; Table 1, read-out: PC3 IC50): < 10000 nM
Nc1ncnc2c1c(-c1cc3cc(O)ccc3[nH]1)nn2C1CCC(N2CCOCC2)CC1 (stereo not drawn) [Compound 57] | < 25 nM | 
CC(C)n1cc(-c2ccc3oc(N)nc3c2)c2c(N)ncnc21 [Compound 8] |  | IC50 (PC3; Table 1, read-out: PC3 IC50): < 100 nM
CC(=O)N1CCC(n2nc(-c3cc4cc(O)ccc4[nH]3)c3c(N)ncnc32)CC1 [Compound 30] | < 25 nM | 
Nc1ncnc2c1c(-c1cc3cc(O)ccc3[nH]1)nn2C1CC(=O)C1 [Compound 53] | < 100 nM | 
Nc1nc2cc(-c3nn(C4CCOCC4)c4ncnc(N)c34)ccc2o1 [Compound 5] |  | IC50 (PC3; Table 1, read-out: PC3 IC50): < 100 nM
Nc1ncnc2c1c(-c1cc3cc(O)ccc3[nH]1)nn2C1CCCCC1 [Compound 26] | < 10 nM | 
COCCn1nc(-c2cc3cc(O)ccc3[nH]2)c2c(N)ncnc21 [Compound 40] | < 100 nM | 
Nc1ncnc2c1c(-c1cc3cc(O)ccc3[nH]1)nn2CCN1CCOCC1 [Compound 33] | < 500 nM | 
Nc1nc2cc(-c3nn(C4CCC(N5CCOCC5)CC4)c4ncnc(N)c34)ccc2o1 (stereo not drawn) [Compound 6] |  | IC50 (PC3; Table 1, read-out: PC3 IC50): < 1000 nM

Compound | IC50 (mTORC) | also measured
Nc1ncnc2c1c(-c1cc3cc(O)ccc3[nH]1)nn2C1CCN(C(=O)C2CC2)CC1 [Compound 31] | < 25 nM | 
Nc1ncnc2c1c(-c1cc3cc(O)ccc3[nH]1)nn2C1CC(O)C1 (stereo not drawn) [Compound 54] | < 25 nM | 
COc1cccc2cc(-c3nn(C(C)C)c4ncnc(N)c34)[nH]c12 [Compound 10] | < 25 nM | 
CC(C)n1nc(-c2cc3ccc(C#N)cc3[nH]2)c2c(N)ncnc21 [Compound 24] |  | IC50 (PC3; [1]): > 500 nM
Cc1nccn1CCn1nc(-c2cc3cc(O)ccc3[nH]2)c2c(N)ncnc21 [Compound 44] | < 100 nM | 
CC(C)n1nc(-c2cc3ccc(C(N)=O)cc3[nH]2)c2c(N)ncnc21 [Compound 25] | < 500 nM | IC50 (PC3; [1]): > 500 nM
CC(C)N1CCC(n2nc(-c3cc4cc(O)ccc4[nH]3)c3c(N)ncnc32)CC1 [Compound 55] | < 500 nM | 
CC(C)n1nc(-c2ccc3nc(N)oc3c2)c2c(N)ncnc21 [Compound 4] |  | IC50 (PC3; Table 1, read-out: PC3 IC50): < 10000 nM
Nc1ncnc2c1c(-c1cc3ccc(O)cc3[nH]1)nn2C1CCOCC1 [Compound 60] | < 100 nM | 
CC(C)n1nc(-c2cc3c(Cl)ccc(O)c3[nH]2)c2c(N)ncnc21 [Compound 39] | < 10 nM | 
CCOC(=O)Cn1nc(-c2cc3cc(O)ccc3[nH]2)c2c(N)ncnc21 [Compound 28] | < 500 nM | 
CC(C)N1CCC(n2nc(-c3cc4cccc(O)c4[nH]3)c3c(N)ncnc32)CC1 [Compound 64] | < 25 nM | 
Nc1ncnc2c1c(-c1cc3cccc(O)c3[nH]1)nn2C1CCCC1 [Compound 36] | < 10 nM | 
CNC(=O)c1cc(Oc2ccc(NC(=O)Nc3ccc(Cl)c(C(F)(F)F)c3)cc2)ccn1 [Sorafenib, sorafenib] |  | tumor hypoxia (anti-pimonidazole staining) (A498 xenografts; 6 cycles, doses and schedules of Table 5 (Compound A 1 mg/kg PO QD or 3QW; Sorafenib 40 mg/kg IP 4QW; alternating 3QW/4QW), tumor 2 hr after dosing): caused necrosis and cells surrounding the necrosis area appear pimonidazole positive; tumor hypoxia (anti-pimonidazole staining), off phase (A498 xenografts; intermittent dosing (Table 5), off phase of the cycle): pimonidazole staining intensity was reduced
CC(=O)N1CCC(n2nc(-c3cc4ccc(O)cc4[nH]3)c3c(N)ncnc32)CC1 [Compound 65] | < 10 nM | 
COc1ccc(Cl)c2cc(-c3nn(C4CCOCC4)c4ncnc(N)c34)[nH]c12 [Compound 61] | < 25 nM | 
CC(C)n1nc(-c2cc3cc(O)c(Cl)cc3[nH]2)c2c(N)ncnc21 [Compound 32] | < 500 nM | 
CC(C)n1nc(-c2ccc3c(N)noc3c2)c2c(N)ncnc21 [Compound 12] |  | IC50 (PC3; Table 1, read-out: PC3 IC50): > 10000 nM
Nc1nc2cc(-c3cn(C4CCOCC4)c4ncnc(N)c34)ccc2o1 [Compound 9] |  | IC50 (PC3; Table 1, read-out: PC3 IC50): < 100 nM
CC(=O)Nc1nc2cc(-c3nn(C(C)C)c4ncnc(N)c34)ccc2o1 [Compound 2] |  | IC50 (PC3; Table 1, read-out: PC3 IC50): < 1000 nM
CC(C)n1nc(-c2cc3ccc(O)cc3[nH]2)c2c(N)ncnc21 [Compound 21] | < 50 nM | 
Nc1ncnc2c1c(-c1cc3cc(O)ccc3[nH]1)nn2C1CCC1 [Compound 27] | < 25 nM | 
CC(C)n1nc(-c2ccc3onc(N)c3c2)c2c(N)ncnc21 [Compound 10] |  | IC50 (PC3; Table 1, read-out: PC3 IC50): > 10000 nM
